Experimental data from patent US9789082B2, “Somatostatin receptor subtype 4 (SSTR4) agonists” (Centrexion Therapeutics Corporation, priority 2013, dated 2017).

What follows are compounds tested against human Somatostatin 4 receptor (SSTR4) (Homo sapiens (Human), UniProt P31391) (assay: cAMP assay with human somatostatin 4 receptor (hSSTR4 expressing H4 cells)). Settings: cAMP assay, read-out: SSTR4 agonism EC50.
Type: cell-based
Procedure: Camp Assay Method Description for cAMP Assay with Human Somatostatin 4 Receptor
The activation of the SSTR4 receptor (Gi coupled) causes an inhibition of intracellular cAMP after stimulation with Forskolin, which can be quantifiable by use of a suitable assay Kit and an adequate plate reader. This technique is used to characterize pharmacological effects of the SSTR4 receptor agonists by use of hSSTR4 expressing H4 cells.
Compounds are dissolved and diluted in DMSO. The final test solution contains 1% DMSO. […] Cells are centrifuged and suspended in assay buffer (incl. 1:100 diluted Alexa antibody).
For the assay 5 μl of a cell suspension (approximately 5000 cells/well)—incl. Alexa antibody (diluted 1:100) are added into a 384 well MTP microtitre plate excepting one row or column (depending on the plate layout), which is reserved for the standard curve. Then 2 μl of compound sample is added as concentration response curve (e.g. 1e-5 M to 6e-10 M), usually in triplicates. Each assay contains incubations with vehicle controls instead of compound as controls for non-inhibited cAMP generation (100% CTL; ‘high values’) and incubations with 1 μM Somatosatin as controls for full inhibition and background (0% CTL; […]). […] Then the plates are shaken briefly and incubated for 60 min at room temperature. After 60 min 10 μl of the detection mix is added into all wells followed by an additional incubation period of 1 h. The plates are read in a suitable plate reader.
From this ratio, cAMP concentrations are calculated from standard curve and the EC50 is estimated by least square curve fit program.
The EC50 values were obtained with the aid of the above described cAMP ASSAY.

Chain of human Somatostatin 4 receptor (SSTR4) (P31391 whole entry): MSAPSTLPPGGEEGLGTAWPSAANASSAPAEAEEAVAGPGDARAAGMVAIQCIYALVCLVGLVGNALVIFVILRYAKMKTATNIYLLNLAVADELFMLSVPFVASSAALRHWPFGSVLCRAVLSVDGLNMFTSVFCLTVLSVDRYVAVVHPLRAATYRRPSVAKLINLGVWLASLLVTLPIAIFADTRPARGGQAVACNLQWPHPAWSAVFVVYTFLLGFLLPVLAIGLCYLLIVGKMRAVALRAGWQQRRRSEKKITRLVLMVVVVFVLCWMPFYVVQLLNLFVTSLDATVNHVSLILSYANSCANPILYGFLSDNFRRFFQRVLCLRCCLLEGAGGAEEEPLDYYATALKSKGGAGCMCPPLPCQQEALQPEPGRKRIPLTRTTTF

| SMILES | EC50 [nM] |
| --- | --- |
| CC(C)(NC(=O)[C@H]1[C@@H]2CNC[C@@H]21)c1ncc2ccc(C(F)(F)F)cn12 [Example 121] | 61.5 |
| Cc1cccn2c([C@@H](C)NC(=O)[C@H]3[C@@H]4CNC[C@@H]43)ncc12 [Example 160] | 42.4 |
| Cc1cccc2c(C(C)NC(=O)[C@H]3[C@@H]4CNC[C@@H]43)nn(C)c12 (stereo partly drawn) [Example 117] | 6.1 |
| CC(C)(NC(=O)[C@H]1[C@@H]2CNC[C@@H]21)c1ccc2ccccc2n1 [Example 34] | 41.1 |
| Cc1nc(C(C)NC(=O)[C@H]2[C@@H]3CNC[C@@H]32)c2cccc(C)c2n1 (single isomer, unassigned) [Example 166] | 1400 |
| CC(C)(NC(=O)[C@H]1[C@@H]2CNC[C@@H]21)C1CCOc2ccccc21 (single isomer, unassigned) [Example 180] | 400 |
| CC(C)(NC(=O)[C@H]1[C@@H]2CNC[C@@H]21)c1ccn2ccnc2c1 [Example 85] | 144 |
| CC(C)(NC(=O)[C@H]1[C@@H]2CNC[C@@H]21)c1ncc2ccncn12 [Example 69] | 749 |
| CC(C)(NC(=O)[C@H]1[C@@H]2CNC[C@@H]21)c1ccc2nccn2c1 [Example 86] | 93.9 |
| CC(C)(CCc1ncccc1C(F)(F)F)NC(=O)[C@H]1[C@@H]2CNC[C@@H]21 [Example 29] | 60.4 |
| CC(NC(=O)[C@H]1[C@@H]2CNC[C@@H]21)c1nn(C)c2c(Cl)cccc12 (single isomer, unassigned) [Example 115] | 21.3 |
| Cc1cc2c(C)nccc2c(C(C)(C)NC(=O)[C@H]2[C@@H]3CNC[C@@H]32)n1 [Example 144] | 47.7 |
| CC(C)(NC(=O)[C@H]1[C@@H]2CNC[C@@H]21)c1nn(CC(F)(F)F)c2ccccc12 [Example 96] | 9.2 |
| CC(C)(COc1cccn2ccnc12)NC(=O)[C@H]1[C@@H]2CNC[C@@H]21 [Example 61] | 1090 |
| Cc1cccn2c(C(C)(C)NC(=O)[C@H]3[C@@H]4CNC[C@@H]43)ccc12 [Example 184] | 0.4 |
| CC(C)(NC(=O)[C@H]1[C@@H]2CNC[C@@H]21)C1COc2ccccc21 (stereo partly drawn) [Example 173] | 237 |
| CC(C)(NC(=O)[C@H]1[C@@H]2CNC[C@@H]21)c1nc(C2=CCOCC2)c2ccccn12 [Example 125] | 97.6 |
| CC(C)(COc1ccncc1C(F)(F)F)NC(=O)[C@H]1[C@@H]2CNC[C@@H]21 [Example 36] | 21.8 |
| Cc1ccccc1OCC(C)(C)NC(=O)[C@H]1[C@@H]2CN(C(C)C)C[C@@H]21 [Example 72] | 362 |
| O=C(NC1(c2nc3ccc(Cl)cc3[nH]2)CCOC1)[C@H]1[C@@H]2CNC[C@@H]21 (stereo partly drawn) [Example 169] | 313 |
| Cc1ccc(C(C)(C)NC(=O)[C@H]2[C@@H]3CNC[C@@H]32)c(C)n1 [Example 172] | 520 |
| Cn1nc(C(C)(C)NC(=O)[C@H]2[C@@H]3CNC[C@@H]32)c2c1CCCC2 [Example 176] | 1.2 |

| SMILES | EC50 [nM] |
| --- | --- |
| Cc1cc(C)c(C(C)(C)NC(=O)[C@H]2[C@@H]3CNC[C@@H]32)cn1 [Example 177] | 9.1 |
| Cc1nc(C(C)NC(=O)[C@H]2[C@@H]3CNC[C@@H]32)c2ccccc2n1 (single isomer, unassigned) [Example 163] | 338 |
| CC(NC(=O)[C@H]1[C@@H]2CNC[C@@H]21)c1nn(C)c2ccccc12 (single isomer, unassigned) [Example 112] | 119 |
| CC(C)(COc1noc2ccccc12)NC(=O)[C@H]1[C@@H]2CNC[C@@H]21 [Example 62] | 207 |
| CC(C)(NC(=O)[C@H]1[C@@H]2CNC[C@@H]21)c1ncc2c(C(F)(F)F)cccn12 [Example 124] | 15.4 |
| CC(C)(NC(=O)[C@H]1[C@@H]2CNC[C@@H]21)c1ncc2cccc(F)n12 [Example 135] | 7.6 |
| CC(C)(NC(=O)[C@H]1[C@@H]2CNC[C@@H]21)c1cc2ccccc2cn1 [Example 26] | 46.5 |
| O=C(NC1(c2ccccc2)CCCCC1)[C@H]1[C@@H]2CNC[C@@H]21 [Example 9] | 536 |
| Cc1nc(C(C)NC(=O)[C@H]2[C@@H]3CNC[C@@H]32)c2ccccc2n1 (single isomer, unassigned) [Example 164] | 6660 |
| CC(C)(NC(=O)[C@H]1[C@@H]2CNC[C@@H]21)c1nc(C(F)(F)F)c2c(F)cccn12 [Example 127] | 31.9 |
| CC(C)(CCc1ccccc1)NC(=O)[C@H]1[C@@H]2CNC[C@@H]21 [Example 4] | 315 |
| CC(C)(NC(=O)[C@H]1[C@@H]2CNC[C@@H]21)C1CCOc2ccccc21 (stereo partly drawn) [Example 178] | 22.4 |
| Cc1nccnc1OCC(C)(C)NC(=O)[C@H]1[C@@H]2CNC[C@@H]21 [Example 37] | 162 |
| CC(C)(NC(=O)[C@H]1[C@@H]2CNC[C@@H]21)c1ncnc2c(F)cccc12 [Example 154] | 7.6 |
| CC(C)(Cc1cccc2ccccc12)NC(=O)[C@H]1[C@@H]2CNC[C@@H]21 [Example 5] | 26.6 |
| COc1ccn2c(C(C)(C)NC(=O)[C@H]3[C@@H]4CNC[C@@H]43)nc(C)c2c1 [Example 155] | 94.7 |
| CC(C)(NC(=O)[C@H]1[C@@H]2CNC[C@@H]21)C1COc2ccccc21 (single isomer, unassigned) [Example 175] | 1000 |
| Cc1cc(I)ccc1OCC1(NC(=O)[C@H]2[C@@H]3CNC[C@@H]32)CC1 [Example 1] | 238 |
| CC(C)(NC(=O)[C@H]1[C@@H]2CNC[C@@H]21)c1ncc2ccc(F)cn12 [Example 136] | 6.4 |
| Cc1cccc2c(C(C)NC(=O)[C@H]3[C@@H]4CNC[C@@H]43)nn(C)c12 (single isomer, unassigned) [Example 118] | 39.2 |
| CC(C)(NC(=O)[C@H]1[C@@H]2CNC[C@@H]21)c1ccccc1 [Example 3] | 179 |
| CC(C)n1nc(C(C)(C)NC(=O)[C@H]2[C@@H]3CNC[C@@H]32)c2ccccc21 [Example 98] | 19.9 |

| SMILES | EC50 [nM] |
| --- | --- |
| Cc1cc(C(F)(F)F)ccc1OCC(C)(C)NC(=O)[C@H]1[C@@H]2CNC[C@@H]21 [Example 19] | 141 |
| Cc1nc2ccccn2c1C(C)(C)NC(=O)[C@H]1[C@@H]2CNC[C@@H]21 [Example 147] | 13.3 |
| CC(C)(NC(=O)[C@H]1[C@@H]2CNC[C@@H]21)C1CCCCC1 [Example 7] | 435 |
| Cc1nc(C(C)NC(=O)[C@H]2[C@@H]3CNC[C@@H]32)c2cccc(C)c2n1 (stereo partly drawn) [Example 162] | 128 |
| Cc1ccccc1CC(C)(C)NC(=O)[C@H]1[C@@H]2CNC[C@@H]21 [Example 6] | 59.6 |
| CC(C)(NC(=O)[C@H]1[C@@H]2CNC[C@@H]21)c1ncc2cnccn12 [Example 131] | 484 |
| Cn1nc(C(C)(C)NC(=O)[C@H]2[C@@H]3CNC[C@@H]32)c2ncccc21 [Example 35] | 376 |
| Cc1csc(C(C)(C)NC(=O)[C@H]2[C@@H]3CNC[C@@H]32)n1 [Example 27] | 285 |
| CC(C)(NC(=O)[C@H]1[C@@H]2CNC[C@@H]21)c1c(Cl)nc2sccn12 [Example 81] | 143 |
| CC(C)(NC(=O)[C@H]1[C@@H]2CNC[C@@H]21)c1nn(Cc2ccccc2)c2ccccc12 [Example 50] | 8.4 |
| CC(C)(NC(=O)[C@H]1[C@@H]2CNC[C@@H]21)c1cn2ccccc2n1 [Example 84] | 840 |
| Cc1nc(C(C)NC(=O)[C@H]2[C@@H]3CNC[C@@H]32)c2ccccc2n1 (stereo partly drawn) [Example 161] | 764 |
| CC(C)(NC(=O)[C@H]1[C@@H]2CNC[C@@H]21)c1cnc2cccnn12 [Example 46] | 241 |
| CC(C)(NC(=O)[C@H]1[C@@H]2CNC[C@@H]21)C1CCOc2ccccc21 (single isomer, unassigned) [Example 179] | 10.3 |
| Cc1nc(C(C)(C)NC(=O)[C@H]2[C@@H]3CNC[C@@H]32)c2cccc(F)c2n1 [Example 157] | 36.9 |
| CC(C)(NC(=O)[C@H]1[C@@H]2CNC[C@@H]21)C1COc2ccccc21 (single isomer, unassigned) [Example 174] | 100 |
| CC(C)(COc1ccnc2ccccc12)NC(=O)[C@H]1[C@@H]2CNC[C@@H]21 [Example 54] | 66.6 |
| Cc1cccn2c(C3(NC(=O)[C@H]4[C@@H]5CNC[C@@H]54)CCOCC3)ncc12 [Example 182] | 68.5 |
| CC(C)(NC(=O)[C@H]1[C@@H]2CNC[C@@H]21)c1nn(CC2CC2)c2ccccc12 [Example 97] | 12.4 |
| Cc1cccn2c(C(C)(NC(=O)[C@H]3[C@@H]4CNC[C@@H]43)C3CC3)ncc12 (stereo partly drawn) [Example 183] | 9.9 |
| Cc1cccnc1CCC(C)(C)NC(=O)[C@H]1[C@@H]2CNC[C@@H]21 [Example 30] | 202 |
| CC(C)(NC(=O)[C@H]1[C@@H]2CNC[C@@H]21)c1nn(C2CCOCC2)c2ccccc12 [Example 99] | 102 |
